Data on 2 compounds can be found in ChEMBL document CHEMBL1135013, “A simple and rapid method for the differentiation of C-13 manoyl oxide epimers in biologically important samples using GC-MS analysis supported with NMR spectroscopy and computational chemistry results” (2002).

The structures appear in SMILES notation. Values after ≈ are worked out from the molar mass of the structure shown.

Holding throughout (assay type): functional
One test relates to Escherichia coli. The test is described as follows: Compound (isolated from leaves of Cistus monspeliensis) was tested for antimicrobial activity against Escherichia coli (ATCC 25922).
A further test relates to Klebsiella pneumoniae. The test is described as follows: Compound (isolated from leaves of Cistus monspeliensis) was tested for antimicrobial activity against Klebsiella pneumoniae (ATCC 13883).
Test [1] concerns Staphylococcus epidermidis. The test can be described thus: Compound (isolated from leaves of Cistus monspeliensis) was tested for antimicrobial activity against Staphylococcus epidermidis (ATCC 12228).
The subject of another test is Staphylococcus hominis. The test is described as follows: Compound (isolated from leaves of Cistus monspeliensis) was tested for antimicrobial activity against Staphylococcus hominis (ATCC 27844).
A further test concerns Staphylococcus aureus. The test is described as follows: Compound (isolated from leaves of Cistus monspeliensis) was tested for antimicrobial activity against Staphylococcus aureus (ATCC 6538).

With `C=C[C@@]1(C)CC[C@@H]2[C@](C)(CCC3C(C)(C)CCC[C@]32C)O1` (some centres not stated), the MIC50 in the test on Escherichia coli and with Klebsiella pneumoniae was over 2000 µg/mL throughout.
Consider `CN[C@@H]1[C@H](O[C@H]2[C@H](O[C@H]3[C@H](O)[C@@H](O)[C@H](N=C(N)N)[C@@H](O)[C@@H]3N=C(N)N)O[C@@H](C)[C@]2(O)C=O)O[C@@H](CO)[C@H](O)[C@H]1O` [STREPTOMYCIN], for which the MIC50 (usually the lowest concentration that inhibits either 50% of growth or 50% of the strains tested, depending on the study) was found to be 0.6 µg/mL (≈ 1.03 µM) with Escherichia coli; 0.6 µg/mL (≈ 1.03 µM) against Klebsiella pneumoniae; 2.1 µg/mL (≈ 3.61 µM) in test [1]; 2.1 µg/mL (≈ 3.61 µM) in the test with Staphylococcus hominis; 2.1 µg/mL (≈ 3.61 µM) against Staphylococcus aureus.
